Among the data in patent US20230192686A1, “1H-PYRROLO[2,3-B]PYRIDINES AND PREPARATION AND USES THEREOF” (BioSplice Therapeutics, Inc., priority 2021, published 2023) are EC50 values, retold here.

pEC50: −log10 of the molar value.

The assay has as its target recombinant DYRK1A kinase (Homo sapiens, UniProt Q13627). Briefly: DYRK1A kinase assay (Ser/Thr 18 peptide Z-lyte FRET). The format is biochemical. The following applies: DYRK1A kinase activity; 15 μM ATP, 4 μM Ser/Thr peptide 18, one hour at room temperature. In outline:
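Recombinant DYRK1A at 0.25 μg/mL was incubated 1 h at room temperature with 15 μM ATP, 4 μM Ser/Thr 18 peptide and compound, in duplicate, 11-point series from 10 μM. Phosphorylation was read by Z-lyte FRET after 1 h protease development, as the coumarin/fluorescein emission ratio converted to % phosphorylation. IC50 by non-linear regression.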
Regarding `CN1CCC(C(=O)Nc2ccc3c(-c4ccnc(N5CCN(C)CC5)c4)c[nH]c3n2)CC1` [Compound 1855, 1-Methyl-N-(3-(2-(4-methylpiperazin-1-yl)pyridin-4-yl)-1H-pyrrolo [2,3-b]pyridin-6-yl)piperidine-4-carboxamide], the pEC50 (as a rule, the EC50 on a negative log10 scale, so that one unit is a factor of ten) was 7.52.
Turning to `CN1CCC(C(=O)Nc2ccc3c(-c4ccc5c(c4)C(C)(C)CNC5=O)c[nH]c3n2)CC1` [Compound 1863, N-(3-(4,4-Dimethyl-1-oxo-1,2,3,4-tetrahydroisoquinolin-6-yl)-1H-pyrrolo[2,3-b]pyridin-6-yl)-1-methylpiperidine-4-carboxamide], the pEC50 is 8.30.
Then `CN1CCC(C(=O)Nc2ccc3c(-c4ccc5ncccc5c4)c[nH]c3n2)CC1` [Compound 1866, 1-Methyl-N-(3-(quinolin-6-yl)-1H-pyrrolo[2,3-b]pyridin-6-yl) piperidine-4-carboxamide], with 9.00.
With `CN1CCN(c2cc(-c3c[nH]c4nc(NC(=O)c5ccncc5)ccc34)ccn2)CC1` [Compound 1897, N-(3-(2-(4-Methylpiperazin-1-yl)pyridin-4-yl)-1H-pyrrolo[2,3-b]pyridin-6-yl)isonicotinamide], the pEC50 was 7.29.
For `O=C(Nc1ccc2c(-c3ccc4c(c3)C3(CCNCC3)CC4=O)c[nH]c2n1)c1ccncc1` [Compound 1898, N-(3-(3-oxo-2,3-dihydrospiro[indene-1,4′-piperidin]-6-yl)-1H-pyrrolo [2,3-b]pyridin-6-yl)isonicotinamide], the negative logarithm of the EC50 (pEC50) was 7.70.
For the molecule `CN1CCC2(CC1)CC(=O)c1ccc(-c3c[nH]c4nc(NC(=O)c5ccncc5)ccc34)cc12` [Compound 1899, N-(3-(1′-methyl-3-oxo-2,3-dihydrospiro[indene-1,4′-piperidin]-6-yl)-1H-pyrrolo[2,3-b]pyridin-6-yl)isonicotinamide], the pEC50 was 7.85.
In the case of `O=C(Nc1ccc2c(-c3ccc4ncccc4c3)c[nH]c2n1)c1ccncc1` [Compound 1908, N-(3-(Quinolin-6-yl)-1H-pyrrolo[2,3-b]pyridin-6-yl)isonicotinamide], the pEC50 was 9.00.
As to `CN1CCC(Oc2ncnc3ccc(-c4c[nH]c5nc(NC(=O)c6ccncc6)ccc45)cc23)CC1` [Compound 1913, N-(3-(4-((1-Methylpiperidin-4-yl)oxy)quinazolin-6-yl)-1H-pyrrolo [2,3-b]pyridin-6-yl)isonicotinamide], the pEC50 was 8.30.
Turning to `CN1CCN(c2cccc(Nc3ccc4c(-c5ccn6ncc(-c7cnn(C)c7)c6c5)c[nH]c4n3)c2)CC1` [Compound 1930, 3-(3-(1-Methyl-1H-pyrazol-4-yl)pyrazolo[1,5-a]pyridin-5-yl)-N-(3-(4-methylpiperazin-1-yl)phenyl)-1H-pyrrolo[2,3-b]pyridin-6-amine], the pEC50 was 8.40.
The result for `CN1CCN(c2cccc(Nc3ccc4c(-c5ccc6c(c5)CCCO6)c[nH]c4n3)c2)CC1` [Compound 1945, 3-(Chroman-6-yl)-N-(3-(4-methylpiperazin-1-yl)phenyl)-1H-pyrrolo [2,3-]pyridin-6-amine] reads 6.90.
The result for `CN1CCN(c2cccc(Nc3ccc4c(-c5ccc6ncccc6c5)c[nH]c4n3)c2)CC1` [Compound 1950, N-(3-(4-Methylpiperazin-1-yl)phenyl)-3-(quinolin-6-yl)-1H-pyrrolo [2,3-b]pyridin-6-amine] reads 7.42; that for `Cc1nc2c(F)cc(-c3c[nH]c4nc(-c5cnn(C)c5)ccc34)cc2n1C(C)C` [Compound 1963, 4-Fluoro-1-isopropyl-2-methyl-6-(6-(1-methyl-1H-pyrazol-4-yl)-1H-pyrrolo[2,3-b]pyridin-3-yl)-1H-benzo[d]imidazole], 7.35; that for `CN1CCC(NC(=O)c2cnn3ccc(-c4c[nH]c5nc(-c6cnn(C)c6)ccc45)cc23)CC1` [Compound 1976, 5-(6-(1-Methyl-1H-pyrazol-4-yl)-1H-pyrrolo[2,3-b]pyridin-3-yl)-N-(1-methylpiperidin-4-yl)pyrazolo[1,5-a]pyridine-3-carboxamide], 8.00.
